# Data published in article PMC8388760, “Novel Bifunctional Acylase from Actinoplanes utahensis: A Versatile Enzyme to Synthesize Antimicrobial Compounds and Use in Quorum Quenching Processes” (Antibiotics, 2021).
# Test system: T1, AuAHLA
# T1 construct: gene ahla; full ORF of 808 residues expressed untagged in Rhodococcus sp; T104, secreted; signal peptide of 34-35 aa removed
# Assay: hydrolysis, o-phthalaldehyde fluorometric assay of released primary amine
# Format: biochemical, Actinoplanes utahensis
# Conditions: 0.2 M potassium phosphate pH 8.0, 45 °C
# Text: hydrolysis, o-phthalaldehyde fluorometric assay of released primary amine on AuAHLA
row,Compound,Km
1,CCCCCC(=O)N[C@@H]1C(=O)N2[C@@H]1SC(C)(C)[C@@H]2C(=O)O [Penicillin dihidroF],199 ± 20 µM
2,CCCCCCCC(=O)N[C@@H]1C(=O)N2[C@@H]1SC(C)(C)[C@@H]2C(=O)O [Penicillin K],675 ± 190 µM
3,CC1(C)S[C@@H]2[C@H](NC(=O)Cc3ccccc3)C(=O)N2[C@H]1C(=O)O [Penicillin G],1210 ± 300 µM
4,CC1(C)S[C@@H]2[C@H](NC(=O)COc3ccccc3)C(=O)N2[C@H]1C(=O)O [Penicillin V],472 ± 50 µM

# Same assay, conditions: 0.2 M potassium phosphate pH 8.0, 45 °C, 20% (v/v) DMSO
row,Compound,Km
1,"CCCCCCCC(=O)CC(=O)N[C@H]1CCOC1=O [3-oxo-C10-HSL, N-(3-oxodecanoyl)-L-homoserine lactone]",238 ± 86 µM
2,"CCCCCC(=O)CC(=O)N[C@H]1CCOC1=O [3-oxo-C8-HSL, N-(3-oxooctanoyl)-L-homoserine lactone]",1040 ± 420 µM

# Further lines, results first:
row,Km,Compound
1,2250 ± 500 µM,"CCCCCC(=O)N[C@H]1CCOC1=O [C6-HSL, N-hexanoyl-L-homoserine lactone]"
2,92 ± 21 µM,"CCCCCCCCCC(=O)CC(=O)N[C@H]1CCOC1=O [3-oxo-C12-HSL, N-(3-oxododecanoyl)-L-homoserine lactone]"
3,84 ± 21 µM,"CCCCCCCCCC(=O)N[C@H]1CCOC1=O [C10-HSL, N-decanoyl-L-homoserine lactone]"
4,8 ± 2 µM,"CCCCCCCCCCCC(=O)N[C@H]1CCOC1=O [C12-HSL, N-dodecanoyl-L-homoserine lactone]"
5,860 ± 150 µM,"CCCCCCCC(=O)N[C@H]1CCOC1=O [C8-HSL, N-octanoyl-L-homoserine lactone]"
